Consider 10 compounds from patent publication US20220194938A1, “NOVEL COMPOUNDS AND PHARMACEUTICAL COMPOSITIONS THEREOF FOR THE TREATMENT OF INFLAMMATORY DISORDERS” (GALAPAGOS NV, priority 2019, published 2022).

One data set concerns the target T1, hERG channel (Homo sapiens, UniProt Q12809).
T1 construct: host or cells: HEK293
Kind of data set: hERG channel test - manual patch clamp assay. The data set is classed as cell-based. Particulars: HEK293 cells stably transfected with hERG, tail current. On the procedure:
4.7 hERG Channel Test—Manual Patch Clamp Assay
The aim of this assay is to determine the in-vitro effects of a test compound on hERG current ([…]) expressed in Human Embryonic Kidney (HEK) cells (evaluation of the blocking profile of test substance on the IKr-like potassium current mediated by hERG channel stably transfected in a human cell line), which is linked to cardiac safety.
The test substance is dissolved in pure dimethylsulfoxide (DMSO) by cold stirring to give a stock solution concentrated 333-fold as compared with the highest concentration to be tested. This stock solution is used to prepare the other stock solutions in DMSO. Each stock solution is used to prepare the solutions containing the final concentrations tested by dilution in extracellular solution (0.1, 1, 10 and 100 μM). Final concentration of DMSO should not not exceed 0.3%.
All formulations are prepared in glass containers.
If a slight opalescence persists at the highest concentration, a 50 μM (instead of 100 μM) concentration is tested.
DMSO diluted in extracellular solution (at the different concentrations used in the final test substance solutions) is used as vehicle.
The extracellular solution is constituted as follows (mM): K-gluconate: 4 mM/Na-gluconate: 145 mM/Mg-gluconate: 2 mM/Ca-gluconate: 3.5 mM/HEPES: 5 mM/glucose: 5 mM/mannitol: 20 mM. The pH is adjusted with NaOH to 7.40±0.05.
Human embryonic kidney (HEK293) cells are stably transfected with the hERG clone (Creacell) and are maintained at 37° C. in a 5% CO2/95% air incubator. Cells used for the study are transferred to an experimental chamber of approximately 2 mL which is maintained at a temperature of 35±0.5° C. by a thermoelectric device (Harvard Apparatus: Type TC-344B) and mounted on the platform of an inverted microscope (Olympus: Type IX-51 or Leica DMI3000 B). Cells are continuously superfused with Tyrode's solution constituted as follows (mM): NaCl: 145/KCl: 4/HEPES: 5/glucose: 5/CaCl2:1/MgCl2: 1.
Ionic currents from hERG-transfected cells are measured using the whole cell configuration of the patch clamp technique. Glass pipettes are pulled from borosilicate glass by a vertical puller (Sutter Instruments: Type P30). Pipette tip resistance is approximately 1.5 to 3.5 MΩ when filled with internal solution constituted as follows (mM): K-gluconate: 145/Mg-gluconate: 1/EGTA: 2/HEPES:5/K2ATP: 2.
The pipettes are connected to the input stage of a patch-clamp amplifier (Axon Instruments: Multiclamp 700B-1). Stimulation, data recording and analysis are performed using specialized Axon Instruments software (pClamp 9.2.0. or pClamp 10.3.0.2).
After rupture of the cell membrane (entering whole-cell mode), cells are stimulated every 10 seconds using the following protocol: 500 ms pulse to +10 mV from a holding potential of −80 mV followed by a 500 ms pulse to −40 mV during which tail current is measured.
Once the current under control conditions is stable, recordings are taken before (control) and after addition of the test substance. The effect of the test substance on tail current is monitored continuously until steady-state is reached. The peak tail current amplitude is averaged for 3 stimuli.
The following parameters are measured: • Cell capacitance (pF). • Peak tail current amplitude (pA).
Peak tail current measurements are normalized using the cell capacitance as an index of cell surface.
The cells will be considered as valid if cell capacitance <80 pF, access resistance <20 MΩ and holding current >−200 pA.
Results are expressed as absolute values and as percentage change from control (percentage of tail current inhibition).
The test substance is studied at 4 ascending concentrations on 3 hERG-transfected cells.
The concentration of test substance inducing 50% of inhibition (IC50) of tail current is determined, if possible, from each individual concentration-response curve. The equation is of the following form: […]

The next data set concerns THP-1-Lucia NFκB cells. Kind of data set: NFκB-reporter assay in THP1-Lucia NFκB cells (LPS, IL-1β, TNFα trigger). The data set is classed as cell-based. Particulars: 24 h. From the text:
This assay was used to evaluate the IRAK4 selectivity and potency of the compounds of the invention upon IRAK4 dependent (LPS and IL-1β) and independent triggering (TNFα), in a THP1-Lucia NFκB reporter assay.
THP-1-Lucia NFκB cells (Invivogen—5, rue Jean Rodier 31400 Toulouse France—cat #thp1-nfkb) were cultivated as recommended by the supplier using split cycles each cycle comprising a succession of thawing/expansion/seeding. The data reported were generated using cells having between 3 to 9 cycles. On the day of the experiment THP-1-Lucia NFκB cells were counted and seeded at a density of 1,000,000 cells/mL in culture medium (RPMI 1640 (Gibco, Cat #52400-025)+10% FBS (Sigma, Cat #F7524-500ML)+1% P/S (Gibco, Cat #15140-122)) by pipetting 54 μL/well in a 384 well plate. Thereafter, 6 μL of a 10× trigger solution was added to all wells, at final concentrations of 2.5, 10 and 3 ng/mL for respectively LPS, TNFα and IL-1β, except for ‘no trigger wells’ where 6 μL culture medium only was added.
After trigger addition, compounds were added with a digital compound dispenser, in an 8-points concentration range, using 3-fold dilution steps and normalizing the final DMSO concentration to 0.2% DMSO in all wells.
After 24 h incubation at 37° C., 5% CO2, 40 μL of supernatant was collected per well and transferred to a new 384 well plate that was then stored at −20° C. until further use.
For the readout, supernatant samples were thawed on ice and 5 μL sample was transferred from each well to a new 384-well plate. 20 μL of Quanti-Luc solution (Quanti-Luc powder (Invivogen, Cat #rep-glc1) dissolved in 25 mL sterile water as indicated by the manufacturer) was added to each well after which luminescence was immediately measured on an Envision instrument.
To measure the inhibition of LPS/TNFα/IL-1β-induced NFκB-reporter activity, percentage inhibition (PIN) values were calculated for all concentrations tested, compared to controls. […]
On the technique in general: Reporter assays use an easily measured gene product as a stand-in for the process of interest.

Like-named read-outs stand apart in the source and are kept apart here.

T1 sequence (Q12809 whole entry): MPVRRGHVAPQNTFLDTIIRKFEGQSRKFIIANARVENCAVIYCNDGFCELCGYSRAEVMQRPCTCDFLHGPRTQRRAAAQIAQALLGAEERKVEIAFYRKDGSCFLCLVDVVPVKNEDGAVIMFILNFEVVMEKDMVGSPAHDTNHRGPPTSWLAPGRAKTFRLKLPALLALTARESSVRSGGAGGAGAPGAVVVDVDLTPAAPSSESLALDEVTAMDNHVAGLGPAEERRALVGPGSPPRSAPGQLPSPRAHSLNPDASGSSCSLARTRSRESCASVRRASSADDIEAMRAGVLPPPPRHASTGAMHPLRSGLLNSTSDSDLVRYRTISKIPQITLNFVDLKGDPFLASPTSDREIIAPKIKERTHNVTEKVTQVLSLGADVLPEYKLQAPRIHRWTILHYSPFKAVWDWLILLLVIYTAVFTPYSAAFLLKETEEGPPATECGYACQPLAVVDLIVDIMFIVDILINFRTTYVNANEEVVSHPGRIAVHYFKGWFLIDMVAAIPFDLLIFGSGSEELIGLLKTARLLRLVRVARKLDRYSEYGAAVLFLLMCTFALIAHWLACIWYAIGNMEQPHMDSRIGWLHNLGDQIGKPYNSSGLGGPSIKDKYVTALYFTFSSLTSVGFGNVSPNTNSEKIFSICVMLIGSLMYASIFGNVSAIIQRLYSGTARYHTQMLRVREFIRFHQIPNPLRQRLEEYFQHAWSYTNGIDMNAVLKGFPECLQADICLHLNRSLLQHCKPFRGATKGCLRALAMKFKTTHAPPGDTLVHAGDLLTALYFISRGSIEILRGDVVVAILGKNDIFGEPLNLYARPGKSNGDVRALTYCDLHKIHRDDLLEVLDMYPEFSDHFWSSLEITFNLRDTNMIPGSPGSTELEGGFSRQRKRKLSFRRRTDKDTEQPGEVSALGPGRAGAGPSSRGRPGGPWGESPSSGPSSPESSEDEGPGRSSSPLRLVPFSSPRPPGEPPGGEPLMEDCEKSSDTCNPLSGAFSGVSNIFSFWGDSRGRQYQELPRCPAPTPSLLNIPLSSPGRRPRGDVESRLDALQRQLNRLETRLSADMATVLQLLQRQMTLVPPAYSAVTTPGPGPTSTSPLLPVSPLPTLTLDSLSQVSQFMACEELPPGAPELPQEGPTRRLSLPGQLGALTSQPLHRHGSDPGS

Turning to `CNC(=O)c1cc2nc(CCC(C)(C)O)cn2cc1NC(=O)c1cccc(C(F)(F)F)n1` [Compound 2, 2-(3-hydroxy-3-methyl-butyl)-N-methyl-6-[[6-(trifluoromethyl)pyridine-2-carbonyl]amino]imidazo[1,2-a]pyridine-7-carboxamide], at hERG channel, the “hERG Manual Patch Clamp Single dose PIN (10 μM)” value is −44.7% and the midpoint of inhibition, the IC50, lay at 19.2 µM.
Take `COc1cc2nc(CCC(C)(C)O)cn2cc1NC(=O)c1cccn(C2CC2)c1=O` [Compound 5, 1-cyclopropyl-N-[2-(3-hydroxy-3-methyl-butyl)-7-methoxy-imidazo[1,2-a]pyridin-6-yl]-2-oxo-pyridine-3-carboxamide]: on hERG channel, the “hERG Manual Patch Clamp Single dose PIN (10 μM)” value is on record as −25%.
Same read-out and setting: the result for `CCOc1c(NC(=O)c2cccn(C)c2=O)cn2cc(CCC(C)(C)O)nc2c1F` [Compound 38, N-[7-ethoxy-8-fluoro-2-(3-hydroxy-3-methyl-butyl)imidazo[1,2-a]pyridin-6-yl]-1-methyl-2-oxo-pyridine-3-carboxamide] reads −30.0%.
For the compound `CCOc1c(NC(=O)c2cccn(C3CC3)c2=O)cn2cc(CCC(C)(C)O)nc2c1F` [Compound 37, 1-cyclopropyl-N-[7-ethoxy-8-fluoro-2-(3-hydroxy-3-methyl-butyl)imidazo[1,2-a]pyridin-6-yl]-2-oxo-pyridine-3-carboxamide], on hERG channel, the “hERG Manual Patch Clamp Single dose PIN (10 μM)” value is −56.3% and half-maximal inhibition (IC50) was put at 6.99 µM.
The like results for `COc1c(NC(=O)c2cccn(C3CC3)c2=O)cn2cc(CCC(C)(C)O)nc2c1F` [Compound 42, 1-cyclopropyl-N-[8-fluoro-2-(3-hydroxy-3-methyl-butyl)-7-methoxy-imidazo[1,2-a]pyridin-6-yl]-2-oxo-pyridine-3-carboxamide] were, in that order, −12% and greater than 92.3 µM.
The like results for `CC(C)(O)CCc1cn2cc(NC(=O)c3cccc(C(F)(F)F)n3)c(C(N)=O)cc2n1` [Compound 31, 2-(3-hydroxy-3-methyl-butyl)-6-[[6-(trifluoromethyl)pyridine-2-carbonyl]amino]imidazo[1,2-a]pyridine-7-carboxamide] were, in that order, −46.7% and 16.3 µM.
The corresponding values for `COc1cc2nc(CCC(C)(C)O)cn2cc1NC(=O)c1cccn(C(F)F)c1=O` [Compound 12, 1-(difluoromethyl)-N-[2-(3-hydroxy-3-methyl-butyl)-7-methoxy-imidazo[1,2-a]pyridin-6-yl]-2-oxo-pyridine-3-carboxamide] are −76.3% and 3.05 µM.
Turning to `CC(C)(O)CCc1cn2cc(NC(=O)c3cccc(C(F)(F)F)n3)c(C(=O)NCC(F)F)cc2n1` [Compound 48, N-(2,2-difluoroethyl)-2-(3-hydroxy-3-methylbutyl)-6-(6-(trifluoromethyl)picolinamido)imidazo[1,2-a]pyridine-7-carboxamide], at hERG channel, the “hERG Manual Patch Clamp Single dose PIN (10 μM)” value is recorded as −20.5%.
With `CCOc1c(NC(=O)c2cccn(C3CC3)c2=O)cn2cc(CCS(C)(=O)=O)nc2c1F` [Compound 39, 1-cyclopropyl-N-[7-ethoxy-8-fluoro-2-(2-methylsulfonylethyl)imidazo[1,2-a]pyridin-6-yl]-2-oxo-pyridine-3-carboxamide], at hERG channel, the “hERG Manual Patch Clamp Single dose PIN (10 μM)” value is −39.7%. Further, on hERG channel, the IC50 (commonly the concentration at which inhibition is half-maximal) was greater than 10 µM. Also, the EC50 was 0.0631 µM with THP-1-Lucia NFκB cells (IL-1β 3 ng/mL, read-out: IL-1β driven NFκB-reporter activity, average pEC50 (converted)) and 0.316 µM with THP-1-Lucia NFκB cells (LPS 2.5 ng/mL, read-out: LPS driven NFκB-reporter activity, average pEC50 (converted)). Further, the “TNFα mediated NFκB-reporter activity” value in the data set with THP-1-Lucia NFκB cells (TNFα 10 ng/mL) was “no activity was observed”.
For the compound `CCNC(=O)c1cc2nc(CCC(C)(C)O)cn2cc1NC(=O)c1cccc(C(F)(F)F)n1` [Compound 49, N-ethyl-2-(3-hydroxy-3-methylbutyl)-6-(6-(trifluoromethyl)picolinamido)imidazo[1,2-a]pyridine-7-carboxamide], at hERG channel, the “hERG Manual Patch Clamp Single dose PIN (10 μM)” value is −17%.
